In test [1] the test system is E3-STn cells. The test can be described thus: E3-STn transfected murine breast tumor allograft model, tumor volume. The format is in vivo, mouse. As to conditions: 7G9-1A8 25 mg/kg ip twice weekly 3 weeks, Paclitaxel daily 5 days. On the procedure: 3 test articles were evaluated during the study.
Standard deviation values are listed in parenthesis.

Test [2] in a line: AcSTn-PAA ELISA. The format is binding. As to conditions: 200 ng/well PAA antigen; 1:5 dilutions from 1 μM. The method, then: (§1) Anti-STn serum titer is determined using a murine anti-STn bovine submaxillary mucin (BSM) ELISA together with serum profiles observed by glycan microarray. 96-well plates are coated with 1 μg/well of BSM and incubated overnight at 4° C. O-acetylation of BSM antigen is removed by treating wells with 0.1 M sodium hydroxide. Specific binding to STn is determined by treatment of wells with sodium periodate. Periodate treatment destroys the C6 side chain of sialic acid; therefore antibodies raised against STn should not bind to periodate-treated wells. Wells are blocked with PBS 1% ovalbumin (OVA). Serum samples to be assayed are serially diluted in PBS 1% OVA. […] Detection of anti-STn antibodies present in serum is determined using an HRP-conjugated polyclonal goat anti-mouse IgG antibody (Jackson Immunoresearch, West Grove, Pa.). […] Optical densities are measured at 490 nm using a Spectramax microplate reader (Molecular Devices, Sunnyvale, Calif.). The serum titer is obtained by comparison of OD values with a cutoff value calculated as two standard deviations above the mean of optical density values of the negative control. […]
(§2) 18D2 and 18C7 antibodies were further characterized by ELISA comprising antigens other than BSM. […] Binding of anti-STn antibodies was detected using a goat anti-mouse IgG-HRP conjugated antibody (Jackson Immunoresearch Laboratories, West Grove, Pa.). […]

The nature of test [3]: GcSTn-PAA ELISA. The format is binding. As to conditions: 200 ng/well PAA antigen; 1:5 dilutions from 1 μM. The method, then: as §1, §2
Background: ELISA stands for enzyme-linked immunosorbent assay.

The nature of test [4]: Glycan array STn specificity and anti-STn antibody group. The class given is binding. As to conditions: assigned from flow cytometry and glycan array analysis. The arrangement: key to Group: Group 1 antibodies according to the invention are antibodies capable of binding AcSTn and GcSTn; Antibodies were assigned to Group 2 based on their ability to bind STn as well as some related structures that include an O-linkage to serine or threonine; Group 3 antibodies are antibodies capable of binding STn, but may also bind a broader set of related structures; Group 4 antibodies are capable of binding to both AcSTn and GcSTn as well as the un-sialylated Tn antigen. The method, then:
Optimized glycan arrays comprise 71 chemically synthesized and well-defined glycans, most of which comprise Neu5Ac and Neu5Gc glycan pairs.
300 ml of epoxy blocking buffer is prepared by combining 15 ml of 2 M Tris buffer (pH 8) with 0.9 ml of 16.6 M ethanolamine and 284.1 ml of distilled water. The solution is filtered using a […] nitrocellulose membrane. The epoxy buffer solution as well as 1 L of distilled water are pre-warmed to 50° C. Glass slides are arranged in a slide holder and quickly submerged in a staining tub with the warmed epoxy blocking buffer. Slides are incubated in the epoxy blocking buffer for 1 hour at 50° C. with periodic shaking to deactivate epoxy binding sites. Next, slides are rinsed and blocked with PBS with 1% OVA at 25° C. for one hour. Serum samples are diluted 1:1000 in PBS with 1% OVA and added to the glycan array for one hour at 25° C. After extensive washing, binding of polyclonal serum antibodies are detected by incubating glycan microarray slides with Cy3-conjugated anti-mouse IgG (Jackson Immunoresearch, West Grove, Pa.) for one hour. Slides are then washed extensively, dried and scanned with a Genepix 4000B scanner (Laser at 100%; gain at 350; 10 μm pixels). Raw data from scanned images are extracted using the Genepix software and analysis of raw data is carried out.
Based on characterization data, anti-STn antibodies developed from Group 6 and Group 8 mice were categorized by anti-STn group number. In some cases, antibodies were assigned to Group 1. Group 1 antibodies according to the invention are antibodies capable of binding AcSTn and GcSTn. Such antibodies may have the ability to associate with a wider range of STn structures. The large oval in FIG. 1A indicates the portion of STn recognized by Group 1 antibodies. […] Also listed in the Table is the antibody Isotype for each antibody as determined by the IsoStrip mouse monoclonal antibody isotyping kit (Roche Diagnostics GmbH, Manheim, Germany).
Background: Flow cytometry measures light scatter and fluorescence of single cells or particles in a stream.

For test [5], the system named is STn on bovine submaxillary mucin (BSM). The test can be described thus: Anti-STn BSM ELISA. The class given is binding. As to conditions: BSM ELISA, sodium periodate treated wells. On the procedure: Anti-STn serum titer is determined using a murine anti-STn bovine submaxillary mucin (BSM) ELISA together with serum profiles observed by glycan microarray. 96-well plates are coated with 1 μg/well of BSM and incubated overnight at 4° C. O-acetylation of BSM antigen is removed by treating wells with 0.1 M sodium hydroxide. Specific binding to STn is determined by treatment of wells with sodium periodate. Periodate treatment destroys the C6 side chain of sialic acid; therefore antibodies raised against STn should not bind to periodate-treated wells. Wells are blocked with PBS 1% ovalbumin (OVA). Serum samples to be assayed are serially diluted in PBS 1% OVA. A commercially available mouse anti-STn monoclonal antibody, 3F1 (SBH Sciences, Natick, Mass.) is used as a positive control. This antibody is also serially diluted in PBS with 1% OVA. A pool of serum from naïve wild type mice is used for the preparation of negative control samples. Detection of anti-STn antibodies present in serum is determined using an HRP-conjugated polyclonal goat anti-mouse IgG antibody (Jackson Immunoresearch, West Grove, Pa.). The reaction is stopped by addition of sulfuric acid (1.6 M). Optical densities are measured at 490 nm using a Spectramax microplate reader (Molecular Devices, Sunnyvale, Calif.). The serum titer is obtained by comparison of OD values with a cutoff value calculated as two standard deviations above the mean of optical density values of the negative control. […]
Binding affinities of 18D2 and 18C7 to STn were compared to commercially available anti-STn antibodies using the BSM ELISA assay described in Example 2. […] Antibody binding was determined using HRP-conjugated polyclonal goat anti-mouse IgG antibody (Jackson Immunoresearch Laboratories, West Grove, Pa.). […] Optical densities were measured at 490 nm using a Spectramax microplate reader. […] The half maximal effective concentration (EC50) for each antibody was calculated using a non-linear regression analysis carried out on periodate subtracted data.

With `CC(=O)O[C@H]1C(=O)[C@@]2(C)[C@H]([C@H](OC(=O)c3ccccc3)[C@]3(O)C[C@H](OC(=O)[C@H](O)[C@@H](NC(=O)c4ccccc4)c4ccccc4)C(C)=C1C3(C)C)[C@]1(OC(C)=O)CO[C@@H]1C[C@@H]2O` [Paclitaxel, reference compound], the “Average Tumor Volume” value in test [1] (day 1 of treatment) turned out to be 112.7 mm^3; in test [1] (day 4 of treatment), 179.5 mm^3; in test [1] (day 6 of treatment) it was 191.4 mm^3; in test [1] (day 8 of treatment), 198.6 mm^3; in test [1] (day 11 of treatment), 199.8 mm^3; in test [1] (day 13 of treatment), 227.0 mm^3. Moreover, the “Average Tumor Volume” value worked out at 248.4 mm^3 in test [1] (day 15 of treatment); 290.5 mm^3 in test [1] (day 18 of treatment); 328.2 mm^3 in test [1] (day 20 of treatment); 331.8 mm^3 in test [1] (day 22); 344.0 mm^3 in test [1] (day 26); 350.1 mm^3 in test [1] (day 27). Also, the “Average Tumor Volume” value in test [1] (day 29) is on record as 352.3 mm^3; in test [1] (day 32) it was 355.1 mm^3; in test [1] (day 34) it was 358.4 mm^3; in test [1] (day 36), 282.0 mm^3; in test [1] (day 39) it was 267.2 mm^3; in test [1] (day 41), 276.4 mm^3.

B1: B72.3: commercial anti-STn antibody, TAG-72 clone B72.3 (Thermo Fisher Scientific) (antibody, chains of the INN, looked up, V domains shown)
VH: QVQLQQSDAELVKPGASVKISCKASGYTFTDHAIHWAKQKPEQGLEWIGYISPGNDDIKYNEKFKGKATLTADKSSSTAYMQLNSLTSEDSAVYFCKRSYYGHWGQGTTLTVSS
VL: DIQMTQSPASLSVSVGETVTITCRASENIYSNLAWYQQKQGKSPQLLVYAATNLADGVPSRFSGSGSGTQYSLKINSLQSEDFGSYYCQHFWGTPYTFGGGTRLEIK
As a reminder, the EC50 is the concentration giving half of the maximal effect. On to B1, for which the values for the EC50 in test [2] and in test [3] were 71.3 nM and 27.8 nM, respectively.

B2: 18C7: anti-STn monoclonal antibody from mouse #4436; IgG2c κ; SEQ ID NO 4 and 5 (antibody, V domains shown)
VH: QVTLKESGPGILQPSQTLSLTCSFSGFSLSTFGMGVGWIRQPSGKGLEWLAHIWWDDDKYYNPALKSRLTISKDTSKNQVFLKIANVDTADTATYYCARIAYYYGSERDYWGQGTTLTVSS
VL: QIVLTQSPAIMSASPGEKVTMTCSASSSISYMHWYHQKPGTSPKRWIYDTSKLASGVPARFSGSGSGTSYSLTISSMEAEDAATYYCHQRSSYTFGGGTKLEIKR
B2 displayed a Group in test [4] of 1. Besides, the “binding to periodate-treated wells” value in test [5] was “did not bind”.

These data come from US20160264684A1, “GLYCAN-INTERACTING COMPOUNDS AND METHODS OF USE” (SIAMAB THERAPEUTICS, INC., priority 2013, published 2016).
